Results from publication PMC9036094, “Antigen-derived peptides engage the ER stress sensor IRE1α to curb dendritic cell cross-presentation” (The Journal of Cell Biology, 2022).
One block for each molecule: values may come before it. Peptide text beside a SMILES is read from it. * marks the point of attachment. Cbz = O=C(OCc1ccccc1)*

Tests used:
[1] = system: IRE1α (XBP1s, pIRE1α) in BMDCs; assay: IRE1α activation in BMDCs (immunoblot); format: cell-based, mouse; details: in words; for IRE1α activation: GM-CSF + IL-4 BMDCs, immunoblot for XBP1s/pIRE1α
Experimental: Figure 1. Antigen pulsing of BMDCs activates IRE1α. (A) BMDCs were pulsed with ovalbumin (starting at 62.5 μg/ml and sequentially doubled) and analyzed by immunoblot (IB) for the indicated markers. (B) BMDCs were pulsed with ovalbumin (starting at 500 μg/ml and sequentially halved) or […] (1 μM), or stimulated with tunicamycin (1 μg/ml) or poly-I:C (25 μg/ml) for 4 h, and analyzed by IB. (C) BMDCs were pulsed with ovalbumin (500 μg/ml) for indicated time points and analyzed by IB. (D) BMDCs were pulsed for 4 h with ovalbumin or lysates derived from the indicated cell lines (500 μg/ml protein) and analyzed by IB. […] (F) Upon removal from bone marrow, total bone marrow cells were transfected with non-targeting control (NTC) or TAP1-targeting gRNAs, along with CRISPR/Cas9 delivery constructs. Cells were then subjected to standard BMDC-differentiation protocol, pulsed with ovalbumin (500 μg/ml) for 4 h, and analyzed by IB. All IB images are representative of at least two similar experiments, and molecular weights represent kD. Source data are available for this figure: SourceData F1.
For purification and differentiation of BMDCs, the femur and tibia bones of C57BL/6 mice were flushed with sterile PBS, and bone marrow cells were then cultured in RPMI1640 media as described above and further supplemented with […] β2-mercaptoethanol (Sigma-Aldrich), 20 ng/ml GM-CSF (BioLegend), and 10 ng/ml IL-4 (BioLegend) for 9 d, with media being replenished every 3 d. Where indicated, Flt3L-BMDCs were similarly generated using media supplemented with 200 ng/ml recombinant mouse Flt3L (PeproTech; [Brasel et al., 2000]). After 9 d of culture, BMDCs were routinely verified to be >90% CD11c^+ MHC-II^high by flow cytometry analysis.
Thapsigargin (Sigma-Aldrich) was used at 100 nM, tunicamycin (Sigma-Aldrich) was used at 5 μg/ml, MG132 (Sigma-Aldrich) was used at 5 μM, Amiloride (Sigma-Aldrich) was used at 10 μM, actinomycin D (Sigma-Aldrich) was used at 4 μg/ml, LPS (Sigma-Aldrich) was used at 10 μg/ml, and poly-I:C (Sigma-Aldrich) was used at 25 μg/ml. Ovalbumin (Sigma-Aldrich), EF-OVA (EndoFit; InvivoGen), […] peptide (Sigma-Aldrich), and human CD4-Fc fusion protein (generated in-house at Genentech) were dissolved in PBS prior to pulsing and used at indicated concentrations.
Cells were lysed in PBS solution supplemented with 1X radioimmunoprecipitation assay buffer (Millipore) and 2X Halt protease-phosphatase inhibitor cocktail (Thermo Fisher Scientific). Upon clearance, samples were analyzed by SDS-PAGE, electrotransferred to nitrocellulose membranes (Invitrogen), and blocked by 5% powdered milk in PBSt (PBS supplemented with 0.1% tween) solution. Development was conducted with ECL reagent (Thermo Fisher Scientific) and imaging was performed with the ChemiDoc ZRS+ imager (Bio-Rad). Antibodies used for Western blot analysis include IRE1α (3294, rabbit; Cell Signaling Technology), β-actin (5125, rabbit; Cell Signaling), GAPDH (97166, mouse; Cell Signaling), ATF6 (66563-1-Ig, mouse; ProteinTech), TAP1 (12341, rabbit; Cell Signaling), CHOP (2895, mouse; Cell Signaling), ATF4 (11815, rabbit; Cell Signaling), ovalbumin (P1-196, rabbit; Thermo Fisher Scientific), human Fc (ab977225, rabbit; Abcam), Myc tag (2272, rabbit; Cell Signaling), and biotin (5597, rabbit; Cell Signaling). IRE1α lumenal domain (mouse), XBP1s (rabbit), and pIRE1α (rabbit) antibodies were generated at Genentech. Secondary antibodies used were for mouse (715-035-150; The Jackson Laboratory) and rabbit (711-035-152; The Jackson Laboratory).

heat-denatured ovalbumin = heat-denatured ovalbumin (UniProt P01012); assay: ELISA; native or heat-denatured ovalbumin coated on a 96-well plate, blocked with 1% BSA; IRE1α LD-Fc (10 μg/ml) in PBS with 20 mM Hepes, 100 mM KOAc, 0.2% tween-20, 2 h, room temperature; detection with HRP-conjugated anti-human Fc antibody
[2] = system: PERK (ATF4, CHOP) in BMDCs; assay: PERK activation in BMDCs (immunoblot of ATF4 and CHOP); format: cell-based, mouse; details: MG132 5 μM or ovalbumin 500 μg/ml, in words
Experimental: (§1) Figure S1. Antigen pulsing of BMDCs activates IRE1α. (A) BMDCs were treated with MG132 (5 μM) or ovalbumin (500 μg/ml) for indicated time points and analyzed by IB. (B) BMDCs were pulsed with ovalbumin (500 μg/ml) and G9668 (3 μM) for indicated time periods and analyzed by IB. (C) Molecular structure, potency, and kinase selectivity of G9668. (D) Schematic representation of G9668 interaction with 220 kinases at 1 μM. Size and color of circles represent interaction strength. Analysis was conducted by KinomeScan. (E) BMDCs were pulsed for 4 h with APC-tagged ovalbumin or soluble CD4-Fc protein (500 μg/ml) with amiloride (10 μM); uptake of protein was assayed by flow cytometry (n = 3). (F) WT or MyD88 KO Flt3L-derived BMDCs were pulsed with ovalbumin (500 μg/ml) or soluble CD4-Fc protein (500 μg/ml), or treated with LPS (10 μg/ml) for 4 h and analyzed by IB. (G) MEFs and BMDCs were pulsed with ovalbumin or treated with Tg (100 nM) for 4 h and analyzed by IB. Images in A, B, F, and G represent at least two similar experiments, and molecular weights represent kD; E bar graphs represent mean ± SD from three independent biological repeats. Analysis for E was performed using unpaired, two-tailed t test; *, P ≤ 0.05; **, P ≤ 0.01. Source data are available for this figure: SourceData FS1. […]

ATF6 in BMDCs = assay: ATF6 activation in BMDCs (immunoblot, proteolytic processing); format: cell-based, mouse; details: MG132 5 μM or ovalbumin 500 μg/ml, in words
Experimental: as §1

[3] = system: IRE1α in MyD88 KO Flt3L-derived BMDCs; assay: IRE1α activation in MyD88 KO Flt3L-derived BMDCs (immunoblot); format: cell-based, mouse; details: ovalbumin 500 μg/ml or LPS 10 μg/ml, 4 h
Experimental: as §1

IRE1α LD-Fc [4] = assay: Co-immunoprecipitation of ovalbumin with IRE1α LD-Fc; format: binding, human; details: LD-Fc 10 μg/ml, 2 h; ovalbumin 1-300 μg/ml; in words
Experimental: (§2) For experiments testing ovalbumin binding, a human LD-Fc was used at indicated concentrations. LD-Fc is comprised of amino acids M1-D443 of IRE1α fused C-terminally to a linker ([…]) followed by the human IgG1 hinge and Fc portion. Ovalbumin (Sigma-Aldrich) was dissolved in sterile PBS and used in native state or denatured as indicated by incubation at 95°C buffer for 10 min.
For co-immunoprecipitation experiments, IRE1α LD-Fc (10 μg/ml) and ovalbumin (indicated concentrations) were co-incubated in binding buffer (as described above) for 2 h and then immunoprecipitated with anti-IRE1α LD antibody (made in-house at Genentech), conjugated to sepharose beads, overnight at 4°C. Beads were subsequently washed four times with lysis buffer and boiled in SDS sample buffer for 10 min. Samples were then analyzed by SDS-PAGE followed by immunoblot.

IRE1α LD-Fc [5] = assay: Plate-based ovalbumin binding to IRE1α LD-Fc; design: species or system human; details: 2 h, room temperature
Experimental: as §2
For plate-based binding experiments, native or heat-denatured ovalbumin at indicated concentrations was bound to a flat-bottom 96-well plate (Corning Inc.) with coating buffer (BioLegend), washed with PBSt, blocked with 1% BSA in PBS, and subsequently incubated with IRE1α LD-Fc (10 μg/ml) in binding buffer composed of PBS with 20 mM Hepes, 100 mM KOAc, and 0.2% tween-20 for 2 h at room temperature. Plates were washed again with PBSt and incubated with an anti-human Fc HRP-conjugated antibody (ab977225; Abcam). Development was performed with 3,3′,5,5′-Tetramethylbenzidine solution and terminated with Stop solution (BioLegend). Readings were taken with a SpectraMax M2 spectrometer (Molecular Devices).

Molecule: polyinosinic:polycytidylic acid [poly-I:C, reference compound]
IRE1α activation [1]: much weaker IRE1α activation than did the potent pharmacological ER-stressor tunicamycin

Kd (heat-denatured ovalbumin): 300 µM
Molecule: IRE1α lumenal domain fused to an Fc tag (IRE1α LD-Fc) (from UniProt O75460 19-443) (Fc fusion)

Molecule: tunicamycin [reference compound]
IRE1α activation [1]: potent pharmacological ER-stressor

Molecule: N=C(N)NC(=O)c1nc(Cl)c(N)nc1N [amiloride, reference compound]
block of antigen-induced IRE1α activation ([1]; BMDCs pulsed with antigen 500 μg/ml, G9668 3 μM or amiloride 10 μM): blocked antigen-induced IRE1α stimulation in BMDCs

Molecule: CC(C)C[C@@H](C=O)NC(=O)[C@H](CC(C)C)NC(=O)[C@H](CC(C)C)NC(=O)OCc1ccccc1 [MG132, reference compound] (Cbz-Leu-Leu-Leu-aldehyde)
PERK activation [2]: robust activation | IRE1α activation [1]: robust activation | ATF6 activation (ATF6 in BMDCs): robust activation

Molecule: lipopolysaccharide [LPS, reference compound]
IRE1α activation, MyD88 KO BMDCs [3]: failed to activate IRE1α

Molecule: SIINFEKL [ovalbumin-derived octapeptide, reference compound]
IRE1α activation [1]: little effect on IRE1α activity

binding to immobilized IRE1α LD-Fc (IRE1α LD-Fc [5]; LD-Fc 10 μg/ml, in words): specific and saturable binding | Kd (IRE1α LD-Fc [5]; plate-based, IRE1α LD-Fc 10 μg/ml, estimated, read-out: equilibrium dissociation constant (Kd)): ~300 µM
B1: heat-denatured ovalbumin: ovalbumin denatured by incubation at 95°C for 10 min (protein)
chain: MGSIGAASMEFCFDVFKELKVHHANENIFYCPIAIMSALAMVYLGAKDSTRTQINKVVRFDKLPGFGDSIEAQCGTSVNVHSSLRDILNQITKPNDVYSFSLASRLYAEERYPILPEYLQCVKELYRGGLEPINFQTAADQARELINSWVESQTNGIIRNVLQPSSVDSQTAMVLVNAIVFKGLWEKAFKDEDTQAMPFRVTEQESKPVQMMYQIGLFRVASMASEKMKILELPFASGTMSMLVLLPDEVSGLEQLESIINFEKLTEWTSSNVMEERKIKVYLPRMKMEEKYNLTSVLMAMGITDVFSSSANLSGISSAESLKISQAVHAAHAEINEAGREVVGSAEAGVDAASVSEEFRADHPFLFCIKHIATNAVLFFGRCVSP
co-immunoprecipitation with IRE1α LD-Fc (IRE1α LD-Fc [4]): concentration-dependent association
